Assay results published in patent US20140288323A1, “CYCLOPROPENIMINE CATALYST COMPOSITIONS AND PROCESSES” (THE TRUSTEES OF COLUMBIA UNIVERSITY IN THE CITY OF NEW YORK, priority 2011, published 2014).
Several values for one entry are separate records, joined by “and”; a condition that tells them apart may be missing. Identical values can stand only once. Counter-ions that a name gives are not always drawn.

Columns and labels:
[1] = Storage of cyclopropenimine hydrochloride salts at room temperature; assay type: physicochemical; conditions: stored at room temperature
Method: (§1) tert-Butylamine (1.4 mL, 13.25 mmol, 3.0 equiv) was added to a solution of chlorocyclopropenium salt (Yoshida et al., 1971) (1.640 g, 4.42 mmol, 1.0 equiv) in CH2Cl2 (50 mL). A white precipitate was observed as the reaction mixture was stirred for 48 hours at room temperature. The crude reaction mixture was washed with 1.0 M HCl (3×30 mL), dried with anhydrous sodium sulfate and concentrated in vacuo to yield pure cyclopropenimine hydrochloride salt as a white solid (1.490 g, 97% yield). […] Neutral cyclopropenimine was prepared in situ in CD3CN to be used for pKBH+ estimation. ^1H NMR data was recorded after addition of excess sodium hydride or potassium tert-butoxide to the corresponding cyclopropenimine hydrochloride salt in CD3CN. ^1H NMR (300 MHz, CD3CN) δ 3.60 (m, 4H, NCH(CH3)2), 1.10-1.40 (m, 33H, NC(CH3)3, NCH(CH3)2).
Dicyclohexylamine (93.3 mL, 469.0 mmol, 6.0 equiv) was slowly added to a solution of tetrachlorocyclopropene (9.59 mL, 78.16 mmol, 1.0 equiv) in CH2Cl2 (800 mL) in a 3-liter round bottom flask. A white precipitate formed as the reaction mixture was stirred for a further four hours at room temperature. Next, (S)-2-amino-3-phenylpropan-1-ol (13.0 g, 86.0 mmol, 1.1 equiv) was added in one portion and the reaction mixture was stirred for an additional ten hours. The crude reaction mixture was filtered through a celite plug, then washed with 1.0 M HCl (3×400 mL), dried with anhydrous sodium sulfate and concentrated in vacuo to yield pure cyclopropenimine hydrochloride salt as a white solid (45.0 g, 99% yield). […] 13C NMR (100 MHz, CDCl3) δ 137.8, 129.2, 128.0, 126.2, 116.5, 114.5, 63.7, 61.3, 59.1, 38.4, 32.1, 31.9, 25.4, 24.4. X-Ray quality crystals were obtained by slow condensation of hexanes into a benzene solution of cyclopropenimine hydrochloride salt.
Dicyclohexylamine (1.27 mL, 6.42 mmol, 6.0 equiv) was slowly added to a solution of tetrachlorocyclopropene (0.13 mL, 1.07 mmol, 1.0 equiv) in CH2Cl2 (20 mL) at room temperature. A white precipitate formed as the reaction mixture was stirred for a further four hours. Next, (S)-1-phenylethanamine (0.28 mL, 2.14 mmol, 2.0 equiv) was added in one portion and the reaction mixture was stirred overnight. The crude reaction mixture was filtered through a celite plug, then washed with 1.0 M HCl (3×20 mL), dried with anhydrous sodium sulfate and concentrated in vacuo to yield pure cyclopropenimine hydrochloride salt as a white solid (567 mg, 96% yield).
The crude reaction mixture was washed with 1.0 M HCl (3×10 mL), dried with anhydrous sodium sulfate and concentrated in vacuo to yield pure cyclopropenimine hydrochloride salt as a pale yellow solid (440 mg, 98% yield).

[2] = Rearrangement rate study: storage stability of cyclopropenimine 5 and 5.HCl by 1H NMR; assay type: physicochemical
Method: Freshly obtained cyclopropenimine 5 was placed in a vial (250 mg per vial) and stored at room temperature and in a −20° C. freezer. Freshly isolated cyclopropenimine hydrochloride salt (250 mg of 5.HCl) was also stored at room temperature. At each time point, a small amount of the solid was removed and its ^1H NMR (CDCl3) was used to measure the ratio of cyclopropenimine to the rearranged product.

[3] = in acetonitrile; Kaljurand et al., 2005; cited from earlier work
[4] = pKBH+ estimation of cyclopropenimine 1 by 1H NMR equilibrium with reference bases in CD3CN; assay type: physicochemical
Method: The inventors have measured the acidity of the conjugate acid (pKBH+) of cyclopropenimine (compound 1),
These findings confirm for the first time that 2,3-bis(dialkylamino)cyclopropenimines are indeed potent Brønsted bases.
as §1
(§2) Cyclopropenimine hydrochloride (18.2 mg, 0.053 mmol, 1.0 equiv) and 1,8-diazabicycloundec-7-ene (7.9 μl, 0.053 mmol, 1.0 equiv) were dissolved in CD3CN. The ^1H NMR chemical shift of the cyclopropenimine isopropyl groups was used to estimate the equilibrium ratio and equilibrium constant of the reaction. The equilibrium constant was then used, with the known pKBH+ of DBU (Kaljurand et al., 2005), to determine the estimated pKBH+. The experiment was repeated in triplicate. A representative ^1H NMR spectrum of the experiment is included.
as §2, with “(13.8” for “(18.2”, “0.04” for “0.053”, “tert-Butylimino-tri(pyrrolidino)phosphorane (12.5 mg, 0.04” for “1,8-diazabicycloundec-7-ene (7.9 μl, 0.053”, “BTPP” for “DBU”, “triplicate.” for “triplicate. A representative ^1H NMR spectrum of the experiment is included.”

For `CC(C)N(c1c(N(C(C)C)C(C)C)c1=NC(C)(C)C)C(C)C` [1.HCl, 3-(tert-butylimino)-N1,N1,N2,N2-tetraisopropylcycloprop-1-ene-1,2-diamine hydrochloride salt], the “storage stability of the hydrochloride salt” value (“storage stability” for short) [1] was “without noticeable decomposition”.
In the case of `Cl.OC[C@H](Cc1ccccc1)N=c1c(N(C2CCCCC2)C2CCCCC2)c1N(C1CCCCC1)C1CCCCC1` [5.HCl, (S)-2-(2,3-bis(dicyclohexylamino)cycloallylamino)-3-phenylpropan-1-ol hydrochloride salt], the “Cyclopropenimine purity (%)” value ([2]; HCl salt stored at room temperature, 0 days) is reported as 100%, the “Cyclopropenimine purity (%)” value ([2]; HCl salt stored at room temperature, 2 days) is reported as 100% and the “Cyclopropenimine purity (%)” value ([2]; HCl salt stored at room temperature, 9 days) is reported as 100%. The “Cyclopropenimine purity (%)” value ([2]; HCl salt stored at room temperature, 16 days) was 100%, the “Cyclopropenimine purity (%)” value ([2]; HCl salt stored at room temperature, 23 days) was 100% and the “Cyclopropenimine purity (%)” value ([2]; HCl salt stored at room temperature, 30 days) was 100%. The “stability of the HCl salt” value ([2]; at room temperature) was “indefinitely stable” and the “storage stability” value [1] was “without noticeable decomposition”.
With `C[C@H](N=c1c(N(C2CCCCC2)C2CCCCC2)c1N(C1CCCCC1)C1CCCCC1)c1ccccc1.Cl` [7.HCl, (S)—N1,N1,N2,N2-tetracyclohexyl-3-(1-phenylethylimino)cycloprop-1-ene-1,2-diamine hydrochloride salt] the “storage stability” value [1] was “without noticeable decomposition”.
In the case of `CC(C)N(c1c(N(C(C)C)C(C)C)c1=N[C@H](CO)Cc1ccccc1)C(C)C.Cl` [8.HCl, (S)-2-(2,3-bis(diisopropylamino)cycloallylamino)-3-phenylpropan-1-ol hydrochloride salt], the “storage stability” value [1] is reported as “without noticeable decomposition”.
In the case of `CN(C)C(=NC(C)(C)C)N(C)C` [BTMG], the “pKBH+” value [3] is listed as 23.56.
In the case of `CN(C)P(=NC(C)(C)C)(N(C)C)N(C)C` [P1-^tBu], the “pKBH+” value [3] is given as 26.98.
In the case of `C1CN=C2NCCCN2C1` [TBD], the “pKBH+” value [3] is listed as 26.03.
For `CC(C)N(c1c(N(C(C)C)C(C)C)c1=NC(C)(C)C)C(C)C` [cyclopropenimine 1, 3-(tert-butylimino)-N1,N1,N2,N2-tetraisopropylcycloprop-1-ene-1,2-diamine], the “Estimated pKBH+ (CD3CN), BTPP, Average” value ([4]; average of three trials, BTPP as reference base, CD3CN) was 26.96, the “Estimated pKBH+ (CD3CN), DBU, Average” value ([4]; average of three trials, DBU as reference base, CD3CN) was 26.74 and the “acidity of the conjugate acid (pKBH+)” value ([4]; in acetonitrile) was 26.9. For the same compound, the “basicity relative to comparable guanidine BTMG” value ([4]; in acetonitrile) was “three orders of magnitude more basic”, the “Estimated pKBH+ (CD3CN), BTPP” value ([4]; single trial, BTPP as reference base, CD3CN) was 27.00 and 26.85 and 27.03 and the “Estimated pKBH+ (CD3CN), DBU” value ([4]; single trial, DBU as reference base, CD3CN) was 26.75 and 26.74.
For `OC[C@H](Cc1ccccc1)N=c1c(N(C2CCCCC2)C2CCCCC2)c1N(C1CCCCC1)C1CCCCC1` [cyclopropenimine 5, (S)-2-(2,3-bis(dicyclohexylamino)cycloallylamino)-3-phenylpropan-1-ol], the half-life ([2]; neat solid in a vial, pure sample stored at room temperature, followed over 30 days, read-out: t1/2 of conversion to rearranged compound 13 (converted)) was ~12 days, the “Cyclopropenimine purity (%)” value ([2]; solid stored at rt, 0 days) was 100% and the “Cyclopropenimine purity (%)” value ([2]; solid stored at rt, 2 days) was 78%. For the same compound, the “Cyclopropenimine purity (%)” value ([2]; solid stored at rt, 9 days) was 57%, the “Cyclopropenimine purity (%)” value ([2]; solid stored at rt, 16 days) was 39% and the “Cyclopropenimine purity (%)” value ([2]; solid stored at rt, 23 days) was 25%. The “Cyclopropenimine purity (%)” value ([2]; solid stored at rt, 30 days) was 5%, the “Cyclopropenimine purity (%)” value ([2]; solid stored at −20° C., 0 days) was 100% and the “Cyclopropenimine purity (%)” value ([2]; solid stored at −20° C., 2 days) was 100%. For the same compound, the “Cyclopropenimine purity (%)” value ([2]; solid stored at −20° C., 9 days) was 98%, the “Cyclopropenimine purity (%)” value ([2]; solid stored at −20° C., 16 days) was 96% and the “Cyclopropenimine purity (%)” value ([2]; solid stored at −20° C., 23 days) was 96%. The “Cyclopropenimine purity (%)” value ([2]; solid stored at −20° C., 30 days) was 94% and the sample still intact ([2]; stored at −20° C., after 30 days) was 94%.
